{"source": "patent US12622965B2", "about": "“Therapeutical tools and methods using temperature-sensitive receptors for treating blindness” (FRIEDRICH MIESCHER INSTITUTE FOR BIOMEDICAL RESEARCH, priority 2020, dated 2026)", "tested_on": "HEK cells expressing TRPV1.459-6x-His, TRPV1.465-6x-His or untagged TRPV1", "test": "whole cell voltage clamp in HEK cells expressing TRPV1 variants, activated by capsaicin", "format": "cell-based", "settings": "TRPV1 agonist capsaicin 2.5 μM bath applied; voltage clamp −60 mV; mean±s.e.m", "description": "First, they developed a system based on rat TRPV1 channels and gold nanorods with absorption maxima at 915 nm. 915 nm was selected to ensure low water absorption. […] To measure if tagged channels are functional, they performed whole cell voltage clamp in HEK cells expressing TRPV1.459-6x-His, TRPV1.465-6x-His or untagged TRPV1 while activating the channels by TRPV1 agonist capsaicin. The size of evoked currents were similar between TRPV1.465-6x-His and TRPV1 (Mann-Whitney U test, P=0.8551; TRPV1.465-6x-His, 1633±164 pA, […] 15 cells; TRPV1, 1766±276 pA, n=14 cells; mean±s.e.m), but less in TRPV1.459-6x-His (Mann-Whitney U test, P=0.0207; TRPV1.459-6x-His, 976±118 pA, n=19 cells; mean±s.e.m). Therefore, they used TRPV1.465-6x-His (rTRPV1) in subsequent experiments.\nFor HEK293T cell experiments, cells were maintained at 37° C. on poly-D-lysine/laminin coated coverslips (GG-12-Laminin, Neuvitro) in DMEM supplemented with 10% fetal bovine serum. Cells were transfected with plasmids containing TRP variants using branched PEI. Cells were perfused in oxygenated Ringer's medium containing 110 mM NaCl, 2.5 mM KCl, 1 mM CaCl2, 1.6 mM MgCl2, 10 mM D-glucose and 22 mM NaHCO3 at ˜36° C. for the duration of the experiment. […] Data was analyzed offline using MATLAB (MathWorks)."}
{"substance": "TRPV1.465-6x-His: rat TRPV1 channel with 6x-His epitope tag inserted in the first extracellular loop after amino acid 465; delivered by AAV", "values": [{"measurement": "size of evoked currents", "value": "1633±164", "unit": "pA"}]}
